In ChEMBL document CHEMBL3817751, “Exploitation of a Novel Binding Pocket in Human Lipoprotein-Associated Phospholipase A2 (Lp-PLA2) Discovered through X-ray Fragment Screening” (J Med Chem, 2016):
pIC50, pKd: −log10 of the molar value. Values after ≈ are worked out from the molar mass of the structure shown.

Columns and labels:
[1] = target: T1, Platelet-activating factor acetylhydrolase (Homo sapiens, UniProt Q13093); test: Inhibition of human recombinant Lp-PLA2 using 2-thio-PAF as substrate after 20 mins by CPM-based fluorescence assay
T1 sequence (Q13093 whole entry): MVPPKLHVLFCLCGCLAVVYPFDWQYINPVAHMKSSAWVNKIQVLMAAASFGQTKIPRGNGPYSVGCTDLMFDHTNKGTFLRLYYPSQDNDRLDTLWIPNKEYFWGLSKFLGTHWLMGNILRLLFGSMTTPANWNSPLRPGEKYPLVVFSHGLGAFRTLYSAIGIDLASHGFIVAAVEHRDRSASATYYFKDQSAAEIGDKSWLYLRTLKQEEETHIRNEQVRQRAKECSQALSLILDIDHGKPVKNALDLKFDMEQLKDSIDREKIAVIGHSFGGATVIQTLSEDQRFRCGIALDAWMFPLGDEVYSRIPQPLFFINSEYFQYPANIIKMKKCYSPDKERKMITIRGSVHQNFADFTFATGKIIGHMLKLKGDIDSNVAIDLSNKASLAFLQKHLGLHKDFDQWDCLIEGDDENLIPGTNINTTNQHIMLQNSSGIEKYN

[2] = Inhibition of human recombinant PLA2-7B using 2-thio-PAF as substrate after 20 mins by CPM-based fluorescence assay
[3] = target: T1, Platelet-activating factor acetylhydrolase; test: Inhibition of Lp-PLA2 in human whole plasma using 2-thio-PAF as substrate preincubated for 15 mins followed by substrate addition measured after 3 mins by CPM-based fluorescence assay; type: cell-free
Homo sapiens = organism: Homo sapiens; test: Selectivity ratio of IC50 for human recombinant PLA2-7B to IC50 for human recombinant Lp-PLA2
[4] = target: T1, Platelet-activating factor acetylhydrolase; test: Binding affinity to N-terminal His6-tagged Lp-PLA2 (47 to 429 residues) (unknown origin) expressed in sf21 insect cells by ITC assay
[5] = target: T1, Platelet-activating factor acetylhydrolase; test: Inhibition of human recombinant Lp-PLA2 using PED6 as substrate preincubated for 30 mins followed by substrate addition measured for 20 mins by fluorescence assay
[6] = Lipophilicity, log D of the compound at pH 7.4 by reversed phase HPLC method; type: physicochemical; details: buffer
[7] = Solubility of the compound in pH 7.4 phosphate buffered saline after 1 hr by chemiluminescent nitrogen detection assay; type: physicochemical
[8] = Apparent permeability of the compound after 3 hrs by HPLC-UV method; type: physicochemical; details: not told
[9] = Binding affinity to human serum albumin/alpha-1 acidglycoprotein after 6 mins by HPLC method; type: ADME; details: human serum albumin/alpha-1 acid glycoprotein, read-out: PB (converted)

Compound	pIC50 [1]	pIC50 [2]	pIC50 [3]	pIC50 [5]	other results
Cc1ccccc1-c1cc(Nc2nc(CCCO)cs2)ccc1C	6.64	< 5.00	5.15	–	Ratio IC50 (Homo sapiens): > 40
NS(=O)(=O)c1ccccc1 [BENZENESULFONAMIDE]	–	–	–	< 3.00	pKd [4]: 2.47
Cc1ccc(C(=O)N2CC=CC2)cc1-c1ccccc1Cl	6.74	< 5.00	–	–	–
COC(CO)Cn1ccc(Nc2cc(-c3ccccc3C)c(C)cc2OCCN)n1 (racemic)	8.85	< 6.00	7.74	–	chromatographic logD [6]: 3.2; solubility at 1 h [7]: 302 µM (≈ 124 µg/mL); Papp at 3 h [8]: 13 ×10⁻⁶ cm/s; fraction unbound at 0.1 h [9]: 0.05
Cc1ccccc1-c1cc(C(=O)c2nccs2)ccc1C	5.70	5.49	–	–	–
COc1cc(C)c(-c2ccccc2C)cc1Nc1nc(CC(CO)OC)cs1 (racemic)	8.44	5.21	6.49	–	–
Cc1ccccc1-c1cc(C(=O)N2CC=CC2)ccc1C	6.64	4.05	–	–	–
CC1(C)NC(=O)NC1=O	–	–	–	< 3.00	–
Cc1ccc(N)cc1-c1ccccc1Cl	4.00	4.37	–	4.00	–
CCN(CC)CCN(Cc1ccc(-c2ccc(C(F)(F)F)cc2)cc1)C(=O)Cn1c(SCc2ccc(F)cc2)nc(=O)c2c1CCC2 [DARAPLADIB]	–	7.20	–	–	chromatographic logD [6]: 6.2; solubility at 1 h [7]: 8 µM (≈ 5.33 µg/mL); Papp at 3 h [8]: 23 ×10⁻⁶ cm/s; fraction unbound at 0.1 h [9]: 0.02
COC(CO)Cc1csc(Nc2cc(-c3ccccc3C)c(C)cc2OCCN)n1 (racemic)	8.62	< 5.00	7.55	–	chromatographic logD [6]: 3.4; solubility at 1 h [7]: 195 µM (≈ 83.4 µg/mL); Papp at 3 h [8]: 21 ×10⁻⁶ cm/s; fraction unbound at 0.1 h [9]: 0.03
Cc1ccccc1-c1cc(C(=O)N2CCCC2)ccc1C	4.52	< 4.00	–	–	–
CC(C)COc1cc(=O)n(C)c(=O)n1C	–	–	–	3.00	–
Cc1ccccc1-c1cc(Nc2nccs2)ccc1C	5.77	4.96	–	–	–
O=C(c1cccc(F)c1)N1CC=CC1	–	–	–	3.30	pKd [4]: 3.01
COC(CO)Cc1csc(Nc2ccc(C)c(-c3ccccc3C)c2)n1 (racemic)	8.02	< 5.00	6.25	–	Ratio IC50 (Homo sapiens): > 1000
